Assay results: PubChem BioAssay AID1963830 (Molecular Pharmacology Branch, DTP, NCI, 2024)

Tested on: 922993-354-T-J3-PDC complex spheroid viability
Assay: Anticancer human tumor 922993-354-T-J3-PDC patient-derived endometrial carcinoma cell line growth inhibition [POLQ]
Conditions: for IC50: curve of first compound; for viability, T/C: stronger effect = lower value
How it was run: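 Patient-derived tumour cells were co-cultured with HUVEC and mesenchymal stem cells as multicellular spheroids at 37 °C. They were treated with POLQ inhibitors (novobiocin, ART-558, RP6685) alone or combined with other agents. Top concentrations were at or near clinical Cmax (otherwise 10 microM; SN-38 at 1 microM), decreasing in half-log steps.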

[1] = second compound 0.0316 µM, first compound 0.0316 µM
[2] = second compound 0.0316 µM, first compound 0.1 µM
[3] = second compound 0.0316 µM, first compound 0.316 µM
[4] = second compound 0.0316 µM, first compound 1 µM
[5] = second compound 0.0316 µM, first compound 3.16 µM
[6] = second compound 0.0316 µM, first compound 10 µM
[7] = second compound 0.1 µM, first compound 0.0316 µM
[8] = second compound 0.1 µM, first compound 0.1 µM
[9] = second compound 0.1 µM, first compound 0.316 µM
[10] = second compound 0.1 µM, first compound 1 µM
[11] = second compound 0.1 µM, first compound 3.16 µM
[12] = second compound 0.1 µM, first compound 10 µM
[13] = second compound 0.316 µM, first compound 0.0316 µM
[14] = second compound 0.316 µM, first compound 0.1 µM
[15] = second compound 0.316 µM, first compound 0.316 µM
[16] = second compound 0.316 µM, first compound 1 µM
[17] = second compound 0.316 µM, first compound 3.16 µM
[18] = second compound 0.316 µM, first compound 10 µM
[19] = second compound 1 µM, first compound 0.0316 µM
[20] = second compound 1 µM, first compound 0.1 µM
[21] = second compound 1 µM, first compound 0.316 µM
[22] = second compound 1 µM, first compound 1 µM
[23] = second compound 1 µM, first compound 3.16 µM
[24] = second compound 1 µM, first compound 10 µM
[25] = second compound 3.16 µM, first compound 0.0316 µM
[26] = second compound 3.16 µM, first compound 0.1 µM
[27] = second compound 3.16 µM, first compound 0.316 µM
[28] = second compound 3.16 µM, first compound 1 µM
[29] = second compound 3.16 µM, first compound 3.16 µM
[30] = second compound 3.16 µM, first compound 10 µM
[31] = second compound 10 µM, first compound 0.0316 µM
[32] = second compound 10 µM, first compound 0.1 µM
[33] = second compound 10 µM, first compound 0.316 µM
[34] = second compound 10 µM, first compound 1 µM
[35] = second compound 10 µM, first compound 3.16 µM
[36] = second compound 10 µM, first compound 10 µM
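Also: spheroids exposed to the agents for one week.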
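For viability, T/C in this document: 100% = DMSO vehicle control wells.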

CNCc1ccc(-c2[nH]c3cc(F)cc4c3c2CCNC4=O)cc1 + Nc1ccc(C#CCN(C(=O)Cc2ncc(C(F)(F)F)cc2C(F)(F)F)c2ccc(F)cc2)nn1
IC50 (second compound 0.0316 µM): > 10 µM | IC50 (second compound 0.1 µM): > 10 µM | IC50 (second compound 0.316 µM): > 10 µM | IC50 (second compound 1 µM): > 10 µM | IC50 (second compound 3.16 µM): > 10 µM | IC50 (second compound 10 µM): > 10 µM | viability, T/C [1]: 101% | viability, T/C [2]: 98.2% | viability, T/C [3]: 98.2% | viability, T/C [4]: 97% | viability, T/C [5]: 96.1% | viability, T/C [6]: 90.5% | viability, T/C [7]: 103% | viability, T/C [8]: 99% | viability, T/C [9]: 99.9% | viability, T/C [10]: 101% | viability, T/C [11]: 97.3% | viability, T/C [12]: 92.5% | viability, T/C [13]: 97.3% | viability, T/C [14]: 99.2% | viability, T/C [15]: 97% | viability, T/C [16]: 96% | viability, T/C [17]: 102% | viability, T/C [18]: 91.8% | viability, T/C [19]: 104% | viability, T/C [20]: 96.4% | viability, T/C [21]: 94.7% | viability, T/C [22]: 102% | viability, T/C [23]: 97.3% | viability, T/C [24]: 94.9% | viability, T/C [25]: 97.3% | viability, T/C [26]: 100% | viability, T/C [27]: 101% | viability, T/C [28]: 93.9% | viability, T/C [29]: 95.9% | viability, T/C [30]: 89.6% | viability, T/C [31]: 95.5% | viability, T/C [32]: 96.9% | viability, T/C [33]: 91.9% | viability, T/C [34]: 93% | viability, T/C [35]: 89.6% | viability, T/C [36]: 69.9%

COc1cccc(OCCCN)c1-c1cc(Nc2cnc(C#N)cn2)n[nH]1 + Nc1ccc(C#CCN(C(=O)Cc2ncc(C(F)(F)F)cc2C(F)(F)F)c2ccc(F)cc2)nn1
IC50 (second compound 0.0316 µM): 0.59 µM | IC50 (second compound 0.1 µM): 0.67 µM | IC50 (second compound 0.316 µM): 0.617 µM | IC50 (second compound 1 µM): 0.609 µM | IC50 (second compound 3.16 µM): 0.277 µM | IC50 (second compound 10 µM): 0.0523 µM | viability, T/C (second compound 0.0316 µM, first compound 0.00316 µM): 102% | viability, T/C (second compound 0.0316 µM, first compound 0.01 µM): 100% | viability, T/C [1]: 98.2% | viability, T/C [2]: 97.3% | viability, T/C [3]: 83.4% | viability, T/C [4]: 22.1% | viability, T/C (second compound 0.1 µM, first compound 0.00316 µM): 104% | viability, T/C (second compound 0.1 µM, first compound 0.01 µM): 99% | viability, T/C [7]: 95.9% | viability, T/C [8]: 98.5% | viability, T/C [9]: 99.1% | viability, T/C [10]: 23.8% | viability, T/C (second compound 0.316 µM, first compound 0.00316 µM): 102% | viability, T/C (second compound 0.316 µM, first compound 0.01 µM): 98.2% | viability, T/C [13]: 94.7% | viability, T/C [14]: 99.7% | viability, T/C [15]: 92.3% | viability, T/C [16]: 19.4% | viability, T/C (second compound 1 µM, first compound 0.00316 µM): 102% | viability, T/C (second compound 1 µM, first compound 0.01 µM): 105% | viability, T/C [19]: 101% | viability, T/C [20]: 96.3% | viability, T/C [21]: 94% | viability, T/C [22]: 16.9% | viability, T/C (second compound 3.16 µM, first compound 0.00316 µM): 96.1% | viability, T/C (second compound 3.16 µM, first compound 0.01 µM): 98.1% | viability, T/C [25]: 99.2% | viability, T/C [26]: 94.2% | viability, T/C [27]: 44.3% | viability, T/C [28]: 14.8% | viability, T/C (second compound 10 µM, first compound 0.00316 µM): 95.9% | viability, T/C (second compound 10 µM, first compound 0.01 µM): 92.8% | viability, T/C [31]: 74.7% | viability, T/C [32]: 18.3% | viability, T/C [33]: 10.5% | viability, T/C [34]: 10.6%

O=C(c1cc(Cc2n[nH]c(=O)c3ccccc23)ccc1F)N1CCN(C(=O)C2CC2)CC1 + Nc1ccc(C#CCN(C(=O)Cc2ncc(C(F)(F)F)cc2C(F)(F)F)c2ccc(F)cc2)nn1
IC50 (second compound 0.0316 µM): > 10 µM | IC50 (second compound 0.1 µM): > 10 µM | IC50 (second compound 0.316 µM): > 10 µM | IC50 (second compound 1 µM): > 10 µM | IC50 (second compound 3.16 µM): > 10 µM | IC50 (second compound 10 µM): > 10 µM | viability, T/C [1]: 107% | viability, T/C [2]: 97.6% | viability, T/C [3]: 99.4% | viability, T/C [4]: 101% | viability, T/C [5]: 102% | viability, T/C [6]: 96.7% | viability, T/C [7]: 104% | viability, T/C [8]: 103% | viability, T/C [9]: 100% | viability, T/C [10]: 98% | viability, T/C [11]: 101% | viability, T/C [12]: 95% | viability, T/C [13]: 104% | viability, T/C [14]: 99.5% | viability, T/C [15]: 101% | viability, T/C [16]: 101% | viability, T/C [17]: 102% | viability, T/C [18]: 97.1% | viability, T/C [19]: 99% | viability, T/C [20]: 105% | viability, T/C [21]: 101% | viability, T/C [22]: 96.2% | viability, T/C [23]: 100% | viability, T/C [24]: 100% | viability, T/C [25]: 101% | viability, T/C [26]: 100% | viability, T/C [27]: 99.2% | viability, T/C [28]: 98.6% | viability, T/C [29]: 97.5% | viability, T/C [30]: 101% | viability, T/C [31]: 95.6% | viability, T/C [32]: 96.9% | viability, T/C [33]: 88.8% | viability, T/C [34]: 91.9% | viability, T/C [35]: 94.2% | viability, T/C [36]: 90%
